Data from ChEMBL document CHEMBL3627622, “Exploration of labeling by near infrared dyes of the polyproline linker for bivalent-type CXCR4 ligands” (Bioorg Med Chem, 2015).

Molecular target: C-X-C chemokine receptor type 4 (Homo sapiens, UniProt P61073)
Test: Displacement of fluorescently-labeled-TZ14011 from CXCR4 in human Jurkat cells incubated for 30 mins by fluorescence analysis
Format: cell-based

C-X-C chemokine receptor type 4, sequence (P61073 whole entry): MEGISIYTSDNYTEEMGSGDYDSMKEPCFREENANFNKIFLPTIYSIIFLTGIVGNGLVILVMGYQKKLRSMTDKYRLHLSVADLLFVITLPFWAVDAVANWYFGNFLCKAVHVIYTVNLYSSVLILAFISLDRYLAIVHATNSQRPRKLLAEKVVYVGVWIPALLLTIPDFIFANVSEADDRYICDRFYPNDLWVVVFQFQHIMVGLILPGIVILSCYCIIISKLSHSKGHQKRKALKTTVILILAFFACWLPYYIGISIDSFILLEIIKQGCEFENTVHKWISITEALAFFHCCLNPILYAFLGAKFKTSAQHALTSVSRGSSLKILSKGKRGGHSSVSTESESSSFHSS

IC50 [nM] | SMILES
86 | [N-]=[N+]=NCCCCCC(=O)NCCCC(=O)N[C@@H](CCCCNC(=O)CSC[C@H]1NC(=O)[C@H](Cc2ccc3ccccc3c2)NC(=O)[C@H](CCCNC(=N)N)NC(=O)[C@H](CCCNC(=N)N)NC(=O)[C@@H](Cc2ccc(O)cc2)NC1=O)C(=O)N1CCC[C@H]1C(=O)N1CCC[C@H]1C(=O)N1CCC[C@H]1C(=O)N1CCC[C@H]1C(=O)N1CCC[C@H]1C(=O)N1CCC[C@H]1C(=O)N1CCC[C@H]1C(=O)N1CCC[C@H]1C(=O)N1CCC[C@H]1C(=O)N1CCC[C@H]1C(=O)N1CCC[C@H]1C(=O)N1CCC[C@H]1C(=O)N1CCC[C@H]1C(=O)N1CCC[C@H]1C(=O)N1CCC[C@H]1C(=O)N1CCC[C@H]1C(=O)N1CCC[C@H]1C(=O)N1CCC[C@H]1C(=O)N[C@@H](CCCCNC(=O)CS[C@@H]1NC(=O)[C@H](Cc2ccc3ccccc3c2)NC(=O)[C@H](CCCNC(=N)N)NC(=O)[C@H](CCCNC(=N)N)NC(=O)[C@@H](Cc2ccc(O)cc2)NC1=O)C(N)=O
44 | CC(=O)N[C@@H](CCCCNC(=O)CSC[C@H]1NC(=O)[C@H](Cc2ccc3ccccc3c2)NC(=O)[C@H](CCCNC(=N)N)NC(=O)[C@H](CCCNC(=N)N)NC(=O)[C@@H](Cc2ccc(O)cc2)NC1=O)C(=O)N1CCC[C@H]1C(=O)N1CCC[C@H]1C(=O)N1CCC[C@H]1C(=O)N1CCC[C@H]1C(=O)N1CCC[C@H]1C(=O)N1CCC[C@H]1C(=O)N1CCC[C@H]1C(=O)N1CCC[C@H]1C(=O)N1CCC[C@H]1C(=O)N1CCC[C@H]1C(=O)N1CCC[C@H]1C(=O)N1CCC[C@H]1C(=O)N1CCC[C@H]1C(=O)N1CCC[C@H]1C(=O)N1CCC[C@H]1C(=O)N1CCC[C@H]1C(=O)N1CCC[C@H]1C(=O)N1CCC[C@H]1C(=O)N[C@@H](CCCCNC(=O)CS[C@H]1NC(=O)[C@H](Cc2ccc3ccccc3c2)NC(=O)[C@H](CCCNC(=N)N)NC(=O)[C@H](CCCNC(=N)N)NC(=O)[C@@H](Cc2ccc(O)cc2)NC1=O)C(N)=O
